Blank lines part the entries; values can stand above or below the compound they belong to.
Assays:
[1] = biological target: Ribosomal protein S6 kinase alpha-3 (Homo sapiens, UniProt P51812); test: Selectivity interaction (ActivX KiNativ screen (kinase selectivity in THP-1 cell lysates)) EUB0000639a RPS6KA3; assay type: subcellular; conditions: lysate, at 5 µM
[2] = biological target: MAP kinase-interacting serine/threonine-protein kinase 1 (Homo sapiens) (UniProt Q9BUB5); test: Selectivity interaction (Kinase panel (Invitrogen)) EUB0000639a MKNK1; conditions: at 200 nM
[3] = biological target: Calcium/calmodulin-dependent protein kinase type II subunit gamma (Homo sapiens) (UniProt Q13555); test: Selectivity interaction (ActivX KiNativ screen (kinase selectivity in THP-1 cell lysates)) EUB0000639a CAMK2G; assay type: subcellular; conditions: lysate
[4] = biological target: Mitogen-activated protein kinase kinase kinase 20 (Homo sapiens) (UniProt Q9NYL2); test: Selectivity interaction (KinomeScan (DiscoverX)) EUB0001079a MAP3K20; conditions: at 1 µM
[5] = biological target: Phosphatidylinositol 3-kinase catalytic subunit type 3 (Homo sapiens, UniProt Q8NEB9); test: Selectivity interaction (ProQinase) EUB0000171b PIK3C3
[6] = biological target: T1, Tyrosine-protein kinase receptor TYRO3 (Homo sapiens) (UniProt Q06418); test: Selectivity interaction (KinomeScan (DiscoverX)) EUB0000092b TYRO3; conditions: at 10 µM
T1 sequence (whole entry): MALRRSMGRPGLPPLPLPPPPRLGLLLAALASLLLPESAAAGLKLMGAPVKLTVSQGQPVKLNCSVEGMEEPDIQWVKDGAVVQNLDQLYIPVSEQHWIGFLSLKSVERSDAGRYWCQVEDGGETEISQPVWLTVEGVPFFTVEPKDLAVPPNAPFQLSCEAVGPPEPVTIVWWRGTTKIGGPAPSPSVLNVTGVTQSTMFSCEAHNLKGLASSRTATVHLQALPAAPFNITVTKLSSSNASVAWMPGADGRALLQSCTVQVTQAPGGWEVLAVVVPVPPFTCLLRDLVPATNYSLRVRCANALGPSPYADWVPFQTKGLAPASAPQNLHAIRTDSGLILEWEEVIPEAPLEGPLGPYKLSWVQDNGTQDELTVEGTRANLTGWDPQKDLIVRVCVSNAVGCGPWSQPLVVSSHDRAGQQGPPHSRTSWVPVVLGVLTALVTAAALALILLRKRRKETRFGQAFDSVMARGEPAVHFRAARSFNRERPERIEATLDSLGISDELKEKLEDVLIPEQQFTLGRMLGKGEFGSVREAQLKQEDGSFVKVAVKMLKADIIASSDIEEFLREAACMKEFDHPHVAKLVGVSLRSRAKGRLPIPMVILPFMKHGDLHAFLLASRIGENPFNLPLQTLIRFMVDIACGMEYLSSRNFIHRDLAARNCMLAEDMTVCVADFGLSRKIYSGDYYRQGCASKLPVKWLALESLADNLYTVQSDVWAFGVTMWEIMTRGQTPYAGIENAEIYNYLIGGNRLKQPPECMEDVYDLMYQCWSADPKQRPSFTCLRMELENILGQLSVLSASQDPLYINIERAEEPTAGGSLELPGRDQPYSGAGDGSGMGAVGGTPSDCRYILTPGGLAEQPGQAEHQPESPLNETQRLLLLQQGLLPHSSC

[7] = biological target: T2, Membrane-associated tyrosine- and threonine-specific cdc2-inhibitory kinase (Homo sapiens) (UniProt Q99640); test: Selectivity interaction (KinomeScan (DiscoverX)) EUB0001619a PKMYT1; conditions: at 1 µM
T2 sequence (whole entry): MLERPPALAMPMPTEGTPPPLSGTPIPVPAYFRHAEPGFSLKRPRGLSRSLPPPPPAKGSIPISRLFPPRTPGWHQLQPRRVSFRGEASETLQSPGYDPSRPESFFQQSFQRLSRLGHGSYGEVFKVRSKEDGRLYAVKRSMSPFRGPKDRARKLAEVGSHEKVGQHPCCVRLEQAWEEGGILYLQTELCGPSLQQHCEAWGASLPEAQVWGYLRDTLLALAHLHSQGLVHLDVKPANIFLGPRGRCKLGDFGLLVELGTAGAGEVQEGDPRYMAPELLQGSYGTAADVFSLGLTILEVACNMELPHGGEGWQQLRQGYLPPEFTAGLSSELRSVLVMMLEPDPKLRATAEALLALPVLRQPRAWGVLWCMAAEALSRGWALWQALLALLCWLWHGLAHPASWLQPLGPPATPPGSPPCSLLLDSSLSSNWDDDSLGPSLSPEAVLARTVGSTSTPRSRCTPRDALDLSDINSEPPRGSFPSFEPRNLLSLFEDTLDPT

[8] = biological target: Serine/threonine-protein kinase tousled-like 2 (Homo sapiens) (UniProt Q86UE8); test: Selectivity interaction (ActivX KiNativ screen (ex vivo kinase selectivity in human PBMCs)) EUB0001619a TLK2; assay type: cell-based; conditions: PBMC, at 1 µM
[9] = biological target: Proto-oncogene tyrosine-protein kinase Src (Homo sapiens, UniProt P12931); test: Selectivity interaction (ActivX KiNativ screen (ex vivo kinase selectivity in human PBMCs)) EUB0001619a SRC; assay type: cell-based; conditions: PBMC, at 1 µM
[10] = biological target: Mitogen-activated protein kinase 4 (Homo sapiens) (UniProt P31152); test: Selectivity interaction (KinomeScan (DiscoverX)) EUB0000618a MAPK4; conditions: at 10 µM
[11] = biological target: Ribosomal protein S6 kinase alpha-5 (Homo sapiens) (UniProt O75582); test: Selectivity interaction (KinomeScan (DiscoverX)) EUB0000618a RPS6KA5; conditions: at 10 µM
[12] = biological target: Cell division control protein 42 homolog (Homo sapiens) (UniProt P60953); test: Selectivity interaction (SelectScreen profiling (Invitrogen)) EUB0000607a CDC42; conditions: at 2 µM

Sequence of Calcium/calmodulin-dependent protein kinase type II subunit gamma (Homo sapiens) (Q13555 whole entry): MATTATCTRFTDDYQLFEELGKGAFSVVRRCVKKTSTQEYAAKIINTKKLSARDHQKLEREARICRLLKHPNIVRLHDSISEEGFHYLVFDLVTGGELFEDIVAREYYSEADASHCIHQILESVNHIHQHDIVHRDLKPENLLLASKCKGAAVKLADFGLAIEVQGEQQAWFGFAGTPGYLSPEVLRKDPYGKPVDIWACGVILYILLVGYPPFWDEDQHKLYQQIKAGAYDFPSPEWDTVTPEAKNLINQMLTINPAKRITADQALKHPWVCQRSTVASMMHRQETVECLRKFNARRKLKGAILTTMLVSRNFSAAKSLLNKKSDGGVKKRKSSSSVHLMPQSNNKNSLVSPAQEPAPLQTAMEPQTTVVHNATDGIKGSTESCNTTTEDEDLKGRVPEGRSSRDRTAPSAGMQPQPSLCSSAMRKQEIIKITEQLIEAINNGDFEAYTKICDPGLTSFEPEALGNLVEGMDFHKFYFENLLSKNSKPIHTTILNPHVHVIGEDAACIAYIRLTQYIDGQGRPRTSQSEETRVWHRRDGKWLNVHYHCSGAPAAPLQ
Sequence of Phosphatidylinositol 3-kinase catalytic subunit type 3 (Q8NEB9 whole entry): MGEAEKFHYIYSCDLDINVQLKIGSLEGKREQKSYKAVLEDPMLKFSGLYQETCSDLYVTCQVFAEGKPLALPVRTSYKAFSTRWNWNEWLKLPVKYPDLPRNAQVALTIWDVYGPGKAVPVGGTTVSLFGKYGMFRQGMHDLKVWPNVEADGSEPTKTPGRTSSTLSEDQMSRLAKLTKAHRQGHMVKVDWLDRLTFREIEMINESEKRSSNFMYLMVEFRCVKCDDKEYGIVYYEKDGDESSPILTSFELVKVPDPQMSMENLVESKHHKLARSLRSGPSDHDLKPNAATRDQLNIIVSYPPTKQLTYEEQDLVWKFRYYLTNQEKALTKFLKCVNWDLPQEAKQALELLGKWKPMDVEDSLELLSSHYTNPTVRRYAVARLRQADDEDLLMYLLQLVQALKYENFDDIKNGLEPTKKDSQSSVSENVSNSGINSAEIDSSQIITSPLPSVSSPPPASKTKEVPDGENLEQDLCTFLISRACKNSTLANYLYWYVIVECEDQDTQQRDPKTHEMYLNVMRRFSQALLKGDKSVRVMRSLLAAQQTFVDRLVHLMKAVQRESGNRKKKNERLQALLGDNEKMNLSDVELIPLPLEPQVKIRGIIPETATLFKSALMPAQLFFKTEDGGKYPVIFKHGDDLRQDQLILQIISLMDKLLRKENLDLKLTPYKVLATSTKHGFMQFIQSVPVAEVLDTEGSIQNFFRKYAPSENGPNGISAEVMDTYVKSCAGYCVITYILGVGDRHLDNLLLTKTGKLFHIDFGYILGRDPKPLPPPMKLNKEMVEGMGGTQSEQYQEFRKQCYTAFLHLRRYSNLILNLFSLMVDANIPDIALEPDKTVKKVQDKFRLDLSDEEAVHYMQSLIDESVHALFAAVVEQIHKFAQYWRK
Sequence of Mitogen-activated protein kinase kinase kinase 20 (Homo sapiens) (Q9NYL2 2-800 limits assumed): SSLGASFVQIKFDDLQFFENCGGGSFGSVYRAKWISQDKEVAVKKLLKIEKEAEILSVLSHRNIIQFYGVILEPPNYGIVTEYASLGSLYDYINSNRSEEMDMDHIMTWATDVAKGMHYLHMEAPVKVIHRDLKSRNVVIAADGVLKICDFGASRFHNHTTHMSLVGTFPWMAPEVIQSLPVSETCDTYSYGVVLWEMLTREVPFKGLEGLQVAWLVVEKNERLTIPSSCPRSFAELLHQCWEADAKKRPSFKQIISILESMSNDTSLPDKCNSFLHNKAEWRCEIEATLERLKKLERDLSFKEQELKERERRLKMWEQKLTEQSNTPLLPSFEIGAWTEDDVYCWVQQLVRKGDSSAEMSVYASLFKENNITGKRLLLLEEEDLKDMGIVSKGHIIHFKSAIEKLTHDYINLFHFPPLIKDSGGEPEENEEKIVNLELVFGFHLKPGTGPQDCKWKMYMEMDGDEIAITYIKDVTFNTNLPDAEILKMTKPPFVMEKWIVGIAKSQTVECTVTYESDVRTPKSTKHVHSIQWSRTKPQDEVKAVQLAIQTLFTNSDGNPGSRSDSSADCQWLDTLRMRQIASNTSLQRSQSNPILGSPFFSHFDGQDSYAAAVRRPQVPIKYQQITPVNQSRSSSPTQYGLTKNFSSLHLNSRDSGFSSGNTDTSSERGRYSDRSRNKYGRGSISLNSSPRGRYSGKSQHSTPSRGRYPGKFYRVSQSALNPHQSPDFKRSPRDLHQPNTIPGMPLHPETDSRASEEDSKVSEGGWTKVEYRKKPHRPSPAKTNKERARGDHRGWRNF
Sequence of Mitogen-activated protein kinase 4 (Homo sapiens) (P31152 whole entry): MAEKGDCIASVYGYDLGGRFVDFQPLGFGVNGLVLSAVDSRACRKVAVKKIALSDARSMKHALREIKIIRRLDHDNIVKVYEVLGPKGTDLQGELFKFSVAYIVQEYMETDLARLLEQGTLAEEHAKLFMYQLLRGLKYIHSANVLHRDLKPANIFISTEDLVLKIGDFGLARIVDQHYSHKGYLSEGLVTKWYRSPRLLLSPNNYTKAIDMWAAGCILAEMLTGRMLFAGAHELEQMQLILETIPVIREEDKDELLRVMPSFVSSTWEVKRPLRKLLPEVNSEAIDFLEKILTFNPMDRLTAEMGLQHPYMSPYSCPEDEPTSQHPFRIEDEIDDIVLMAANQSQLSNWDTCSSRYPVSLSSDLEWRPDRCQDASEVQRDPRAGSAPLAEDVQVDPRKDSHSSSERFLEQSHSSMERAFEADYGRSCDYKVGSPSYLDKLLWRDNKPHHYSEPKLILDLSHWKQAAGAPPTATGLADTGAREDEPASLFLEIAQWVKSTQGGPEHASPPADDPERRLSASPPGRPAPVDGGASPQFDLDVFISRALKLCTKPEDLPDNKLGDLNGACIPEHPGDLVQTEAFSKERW
Sequence of Serine/threonine-protein kinase tousled-like 2 (Homo sapiens) (Q86UE8 whole entry, looked up): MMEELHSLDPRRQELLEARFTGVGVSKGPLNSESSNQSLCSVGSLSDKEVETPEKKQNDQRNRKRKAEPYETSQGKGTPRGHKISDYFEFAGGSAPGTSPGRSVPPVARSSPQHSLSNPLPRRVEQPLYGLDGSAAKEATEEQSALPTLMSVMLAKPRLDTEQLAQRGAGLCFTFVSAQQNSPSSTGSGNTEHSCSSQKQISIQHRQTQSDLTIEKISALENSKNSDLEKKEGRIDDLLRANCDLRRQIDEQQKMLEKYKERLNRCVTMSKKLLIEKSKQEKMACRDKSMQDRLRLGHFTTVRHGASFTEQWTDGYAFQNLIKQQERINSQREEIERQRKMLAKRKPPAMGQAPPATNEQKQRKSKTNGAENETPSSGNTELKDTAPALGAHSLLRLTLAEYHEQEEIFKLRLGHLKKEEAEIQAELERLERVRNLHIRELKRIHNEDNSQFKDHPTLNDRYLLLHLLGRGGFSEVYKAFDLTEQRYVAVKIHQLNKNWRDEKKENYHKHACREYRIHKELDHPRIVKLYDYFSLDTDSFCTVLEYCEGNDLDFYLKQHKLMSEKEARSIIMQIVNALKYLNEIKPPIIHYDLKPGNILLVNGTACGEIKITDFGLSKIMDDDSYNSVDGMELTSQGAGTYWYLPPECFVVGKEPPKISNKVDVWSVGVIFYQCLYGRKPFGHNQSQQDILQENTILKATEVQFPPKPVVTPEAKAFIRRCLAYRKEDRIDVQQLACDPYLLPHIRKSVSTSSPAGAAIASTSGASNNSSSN
Sequence of Proto-oncogene tyrosine-protein kinase Src (P12931 2-536 limits assumed): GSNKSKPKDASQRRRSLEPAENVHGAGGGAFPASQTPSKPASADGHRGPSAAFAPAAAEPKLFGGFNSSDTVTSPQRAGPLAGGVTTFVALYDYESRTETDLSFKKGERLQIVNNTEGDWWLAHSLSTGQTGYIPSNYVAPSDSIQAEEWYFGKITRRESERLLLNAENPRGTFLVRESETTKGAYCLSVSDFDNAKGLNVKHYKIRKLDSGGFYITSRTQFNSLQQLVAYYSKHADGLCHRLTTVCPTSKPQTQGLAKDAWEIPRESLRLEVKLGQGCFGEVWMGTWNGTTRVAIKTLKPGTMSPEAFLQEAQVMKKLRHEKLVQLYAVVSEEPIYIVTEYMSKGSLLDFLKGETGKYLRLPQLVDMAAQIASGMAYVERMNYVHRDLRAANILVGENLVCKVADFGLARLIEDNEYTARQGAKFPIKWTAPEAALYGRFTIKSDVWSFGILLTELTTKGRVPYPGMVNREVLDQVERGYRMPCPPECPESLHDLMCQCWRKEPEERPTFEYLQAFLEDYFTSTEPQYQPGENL
Sequence of Ribosomal protein S6 kinase alpha-3 (P51812 whole entry): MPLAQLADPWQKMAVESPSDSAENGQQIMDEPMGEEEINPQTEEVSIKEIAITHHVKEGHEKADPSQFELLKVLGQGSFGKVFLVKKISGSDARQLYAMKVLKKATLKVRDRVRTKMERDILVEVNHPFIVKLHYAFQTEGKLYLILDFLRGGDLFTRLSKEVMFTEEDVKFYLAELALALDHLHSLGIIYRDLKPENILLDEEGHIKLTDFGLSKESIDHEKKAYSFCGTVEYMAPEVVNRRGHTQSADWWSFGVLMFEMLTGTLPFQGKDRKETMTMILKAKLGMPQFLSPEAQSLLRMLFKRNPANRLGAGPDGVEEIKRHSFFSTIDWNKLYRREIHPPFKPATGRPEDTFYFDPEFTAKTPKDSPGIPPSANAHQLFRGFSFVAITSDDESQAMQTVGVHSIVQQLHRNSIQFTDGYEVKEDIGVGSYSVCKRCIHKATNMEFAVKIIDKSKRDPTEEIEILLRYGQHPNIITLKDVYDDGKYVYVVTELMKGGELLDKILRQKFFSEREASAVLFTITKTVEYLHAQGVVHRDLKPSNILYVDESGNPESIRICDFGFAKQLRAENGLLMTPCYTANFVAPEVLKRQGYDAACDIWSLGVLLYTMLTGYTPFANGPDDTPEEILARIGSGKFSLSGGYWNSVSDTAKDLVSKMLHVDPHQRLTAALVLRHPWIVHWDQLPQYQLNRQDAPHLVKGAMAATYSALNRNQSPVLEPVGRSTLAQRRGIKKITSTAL

% of inhibition [1]: 1.6%
% of inhibition [2]: 46.2%
% of inhibition ([3]; at 0.01 µM): -1%
% of inhibition ([3]; at 0.04 µM): 3.3%
% of inhibition ([3]; at 0.2 µM): 10%
% of inhibition ([3]; at 1 µM): 35.2%
% of inhibition ([3]; at 5 µM): 63%
Structure (SMILES): CC[C@@H]1[C@H](F)C(=O)N[C@@H]1COc1nccc2cc(C(N)=O)c(OC)cc12 [ZIMLOVISERTIB]

Structure (SMILES): Nc1cnc(N2CCc3cc(S(=O)(=O)Nc4c(F)cc(Cl)cc4F)cc(N4CCCC4=O)c32)nc1 [TP-020n]
% of control [4]: 95%

% of control ([5]; at 1 µM): 108%
% of control ([5]; at 5 µM): 103%
Structure (SMILES): C=CC(=O)Nc1cccc(C(=O)Nc2ccc(Nc3cc(-c4[nH]c(SC)nc4C)ccn3)cc2)c1

Structure (SMILES): CCC(=O)N1CCN(c2ccc(-n3c(=O)ccc4cnc5ccc(-c6cnc7ccccc7c6)cc5c43)cc2C(F)(F)F)CC1
% of control [6]: 31%

Structure (SMILES): N#Cc1cccc(-c2c[nH]c3ncnc(N4CCOCC4)c23)c1
% of control [7]: 73%
% of inhibition [8]: 6%
% of inhibition [9]: -2%

Structure (SMILES): O[C@H]1CC[C@H](Nc2ncc3nc(Nc4c(F)cc(F)cc4F)n([C@H]4CCOC4)c3n2)CC1
% of control [10]: 42%
% of control [11]: 100%

Structure (SMILES): CNC(=O)Nc1ccc(-c2nc(N3CC4CCC(C3)O4)c3cnn(C4CCC5(CC4)OCCO5)c3n2)cc1
% of inhibition [12]: 9%

Reference: ChEMBL document CHEMBL5465560, “Selectivity Literature for EUbOPEN Chemogenomic Library” (2024)
